Target: T1, Human MC1R (Homo sapiens, UniProt Q01726)
T1 construct: endogenous in cells; host or cells: human melanoma cell line HBL
Test: MCR agonist measurement (cAMP measurement), human MC1R agonist activity in human melanoma cell line HBL
Type: cell-based
Settings: HBL cells; for EC50: 37° C. for 30 minutes, intracellular cAMP by fluorescence method; for Human MC1R IA %: Intrinsic Activity, vehicle cAMP = 0%, αMSH at 10^-6 M = 100%
Procedure: (1) Method for Culturing Cells
Human MC1R agonist activity measurement was carried out by using human melanoma cell line HBL. Culture of HBL: F-10 Nutrient Mixture containing 10% FCS and Penicillin-streptomycin was used in the culture.
(2) cAMP Assay and Data Calculation
Each compound solution having each concentration was mixed with cAMP assay buffer (HBSS (Hank's Balanced Salt Solution) containing 10 mM HEPES and 0.1% BSA), and dispensed into 96 well plate. HBL was suspended in cAMP assay buffer containing 0.5 mM IBMX so that the concentrate became 5×10^4/mL, dispensed into the above 96 well plate, then mixed, left to stand at 37° C. for 30 minutes, and then the intracellular […] concentration was measured by fluorescence method using Envision (ex. 320 nm, em. 590 nm and 665 nm).

T1 sequence (Q01726 whole entry): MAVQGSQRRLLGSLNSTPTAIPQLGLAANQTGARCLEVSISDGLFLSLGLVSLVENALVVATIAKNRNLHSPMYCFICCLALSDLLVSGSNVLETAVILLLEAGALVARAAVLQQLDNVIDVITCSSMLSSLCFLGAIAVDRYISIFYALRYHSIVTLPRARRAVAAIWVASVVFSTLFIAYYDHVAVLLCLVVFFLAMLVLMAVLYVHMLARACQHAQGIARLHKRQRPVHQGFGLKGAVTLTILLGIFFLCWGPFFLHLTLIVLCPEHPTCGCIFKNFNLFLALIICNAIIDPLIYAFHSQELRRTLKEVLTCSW

EC50 [nM]	Human MC1R IA % [%]	Compound
14	81	COc1ccc([C@@H]2CN(C(C)(C)C)C[C@@]2(F)C(=O)N2CCC(c3ccc(C(F)(F)F)cc3N3CCN(C(N)=O)CC3)CC2)cc1.Cl.Cl [Example 284, 4-[2-(1-{[(3R,4R)-1-tert-butyl-3-fluoro-4-(4-methoxyphenyl)pyrrolidin-3-yl]carbonyl}piperidin-4-yl)-5-(trifluoromethyl)phenyl]piperazine-1-carboxamide dihydrochloride]
20	99	COc1ccc([C@@H]2CN(C3CCCC3)C[C@@]2(F)C(=O)N2CC(c3ccc(C(F)(F)F)cc3N3CCC(C(=O)O)CC3)C(F)(F)C2)cc1 (single isomer, unassigned) [Example 293]
6.7	73	COC[C@H]1CN(C(=O)[C@]2(F)CN(C3CCCC3)C[C@H]2c2ccc(OC)cc2)C[C@@H]1c1ccc(C(F)(F)F)cc1N1CCC(C(=O)N(C)CC(=O)O)CC1 [Example 269]
2	78	COC[C@@H]1C[C@@H](c2ccc(C(F)(F)F)cc2N2CCC(C(=O)O)CC2)CN1C(=O)[C@]1(F)CN(c2ccnc(C)n2)C[C@H]1c1ccc(OC)cc1 [Example 67]
4.3	110	COc1ccc([C@@H]2CN([C@H]3CC[C@H](OC)CC3)C[C@@]2(F)C(=O)N2CC[C@@H](c3ccc(F)cc3N3CCC(C(=O)O)CC3)C2)cc1 [Example 218]
59	90	COC[C@H]1CN(C(=O)[C@]2(F)CN(C3CCOCC3)C[C@H]2c2ccc(OC)cc2)C[C@@H]1c1ccc(C(F)(F)F)cc1N1CCC(c2nnn[nH]2)CC1.Cl.Cl [Example 279, [(3R,4R)-3-fluoro-4-(4-methoxyphenyl)-1-(tetrahydro-2H-pyran-4-yl)pyrrolidin-3-yl][(3R,4S)-3-(methoxymethyl)-4-{2-[4-(1H-tetrazol-5-yl)piperidin-1-yl]-4-(trifluoromethyl)phenyl}pyrrolidin-1-yl]methanone dihydrochloride]
31	107	COC[C@H]1CN(C(=O)[C@]2(F)CN(C3CCCC3)C[C@H]2c2ccc(OC)cc2)C[C@@H]1c1cc(F)c(F)cc1N1CCC(C(=O)O)CC1 [Example 201]
–	88	COC[C@H]1CN(C(=O)[C@]2(F)CN(C3CCCC3)C[C@H]2c2ccc(OC)cc2)C[C@@H]1c1ccc(C(F)(F)F)cc1N1CCC(C(=O)O)CC1 [Example 19]
11	76	COC[C@H]1CN(C(=O)[C@]2(F)CN(C3CCCC3)C[C@H]2c2ccc(OC)cc2)C[C@@H]1c1ccc(OC(F)(F)F)cc1N1CCC(C(=O)O)CC1 [Example 130]
29	83	COC[C@@]1(OC)CN(C(=O)[C@]2(F)CN([C@H]3CC[C@H](OC)CC3)C[C@H]2c2ccc(OC)cc2)C[C@@H]1c1ccc(C(F)(F)F)cc1N1CCC(C(=O)O)CC1 [Example 156]
42	86	COc1ccc([C@@H]2CN(C(C)(C)C)C[C@@]2(F)C(=O)N2CCC(c3ccc(C(F)(F)F)cc3OCCCc3nnn[nH]3)CC2)cc1.Cl [Example 280, [(3R,4R)-1-tert-butyl-3-fluoro-4-(4-methoxyphenyl)pyrrolidin-3-yl](4-{2-[3-(1H-tetrazol-5-yl)propoxy]-4-(trifluoromethyl)phenyl}piperidin-1-yl)methanone hydrochloride]
19	72	COc1ccc([C@@H]2CN(C(C)(C)C)C[C@@]2(F)C(=O)N2CCC(c3ccc(C(F)(F)F)cc3N3CCNCC3)CC2)cc1 [Example 281, [(3R,4R)-1-tert-butyl-3-fluoro-4-(4-methoxyphenyl)pyrrolidin-3-yl]{4-[2-(piperazin-1-yl)-4-(trifluoromethyl)phenyl]piperidin-1-yl}methanone]
5.1	92	COC[C@H]1CN(C(=O)[C@]2(F)CN(C3CCCC3)C[C@H]2c2ccc(OC)cc2)C[C@@H]1c1ccc(C(F)(F)F)cc1N1CCC(C(=O)N(C)C)CC1 [Example 248]
15	89	COc1ccc([C@@H]2CN([C@H]3CC[C@H](OC)CC3)C[C@@]2(F)C(=O)N2CCC(c3ccc(C(F)(F)F)cc3N3CCC(C(=O)O)CC3)CC2)cc1 [Example 98]
30	69	COC[C@H]1CN(C(=O)[C@]2(F)CN(c3ccnc(OC)c3)C[C@H]2c2ccc(OC)cc2)C[C@@H]1c1ccc(C(F)(F)F)cc1N1CCC(C(=O)O)CC1 [Example 61]
12	72	COC[C@H]1CN(C(=O)[C@]2(F)CN(C3CCOCC3)C[C@H]2c2ccc(OC)cc2)C[C@@H]1c1ccc(C(F)(F)F)cc1N1CCC(C(=O)O)CC1 [Example 95]
13	79	COc1ccc([C@@H]2CN(C(C)(C)C)C[C@@]2(F)C(=O)N2CCC(c3ccc(C(F)(F)F)cc3OCCCC(=O)NS(C)(=O)=O)CC2)cc1 [Example 273]
38	67	COc1ccc([C@@H]2CN(C(C)(C)C)C[C@@]2(F)C(=O)N2CCC(c3ccc(C(F)(F)F)cc3N3CCC(N(C)C)CC3)CC2)cc1 [Example 205]
20	36	COc1ccc([C@@H]2CN(C3CCCC3)C[C@@]2(F)C(=O)N2CCC=C(c3ccc(C(F)(F)F)cc3N3CCC(C(=O)O)CC3)C2)cc1 [Example 163]
0.89	88	COc1ccc([C@@H]2CN([C@H]3CC[C@H](OC)CC3)C[C@@]2(F)C(=O)N2CC[C@@H](c3ccc(C(F)(F)F)cc3N3CCC(C(=O)O)CC3)C2)cc1 [Example 213]
17	74	COC[C@H]1CN(C(=O)[C@]2(F)CN(C3CCCC3)C[C@H]2c2ccc(C)cc2)C[C@@H]1c1ccc(C(F)(F)F)cc1N1CCC(C(=O)O)CC1 [Example 22]
7.4	80	COc1ccc([C@@H]2CN(C(C)(C)C)C[C@@]2(F)C(=O)N2CCC(c3ccc(C(F)(F)F)cc3[C@H]3C[C@H](C(=O)O)C3)CC2)cc1 [Example 177]
11	82	CNC(=O)C1CCN(c2cc(C(F)(F)F)ccc2C2CCN(C(=O)[C@]3(F)CN(C(C)(C)C)C[C@H]3c3ccc(OC)cc3)CC2)CC1.Cl.Cl [Example 231, 1-[2-(1-{[(3R,4R)-1-tert-butyl-3-fluoro-4-(4-methoxyphenyl)pyrrolidin-3-yl]carbonyl}piperidin-4-yl)-5-(trifluoromethyl)phenyl]-N-methylpiperidine-4-carboxamide dihydrochloride]
24	92	COC[C@H]1CN(C(=O)[C@]2(F)CN(c3ccc(C)nn3)C[C@H]2c2ccc(OC)cc2)C[C@@H]1c1ccc(C(F)(F)F)cc1N1CCC(C(=O)O)CC1 [Example 63]

Source: US9981960B2, “Pyrrolidine compound and application as melanocortin receptor agonist” (MITSUBISHI TANABE PHARMA CORPORATION, priority 2014, dated 2018)
